Test results as given in patent US20250215015A1 (THE REGENTS OF THE UNIVERSITY OF CALIFORNIA, priority 2022, published 2025).
Where two headings read alike, the source gives them in different places.

Key:
U87 GBM = assay: GBM agent potency in U87 cells; type: cell-based
Excerpt: UCN-01 potency. The potency of UCN-01 markedly exceeds that of standard GBM agents in GBM U87 cells (Table 1), and it engages a unique pattern of signaling pathways to drive apoptosis. The ability of UCN-01 at noncytotoxic doses to abrogate G2 arrest is evident in p53 dysregulated cells. p53 is mutated in about 35% of primary GBM and 65% of secondary GBM. p53 pathway dysregulation occurs in 86% of GBM.

[1] = In vitro unbound fraction of UCN-01 in rat plasma; type: in vitro ADME; set-up: dose or concentration left out as unconfirmed
Excerpt: (§1) UCN-01 pharmacokinetics and nanoliposomes. Free UCN-01 is instantly bound by human alpha-1 acid glycoprotein (AAG) plasma protein with extremely high affinity and remains in circulation for remarkably extended periods of time. […] Unfortunately this greatly diminishes the availability of free (active) compound so that the in vivo effectiveness of UCN-01 is compromised even when it enters tumor tissue when bound to AAG the UCN-01 molecule is not bioavailable. Increasing the UCN-01 dose to sufficiently saturate AAG in the plasma elevates the risk of toxicity.

[2] = In vitro unbound fraction of UCN-01 in mouse plasma; type: in vitro ADME; set-up: dose or concentration left out as unconfirmed
Excerpt: as §1

U87 glioblastoma cells = assay: Potentiation of temozolomide; type: cell-based
[3] = tested on: radioresistant U87 GBM cells; assay: GBM radiosensitization in culture; type: cell-based; settings: mildly cytotoxic nM levels, clinically relevant radiation doses
Method: Bar graph of radiation dose and UCN-01 dose (nM) vs percent viable U87 GBM cells. Red columns for 0 Gy and purple for 5 Gy—a clinically relevant dose.
GBM radiosensitization with low doses of the staralog UCN-01. […] As a precursor to studies with a range of staralogs, extensive model investigations with the class parent staralog model system, STS were performed.

[4] = In vitro unbound fraction of UCN-01 in dog plasma; type: in vitro ADME; set-up: dose or concentration left out as unconfirmed
Excerpt: as §1

[5] = tested on: GBM patient cancer stem cell derived GBM tumorsphere lines; assay: GBM cytotoxicity, MTT assay in tumorsphere lines; type: cell-based; settings: 8 GBM tumorsphere lines, almost all cell lines
Method: GBM cytotoxicity with UCN-01. 8 different GBM patient cancer stem cell derived GBM tumorsphere lines were incubated with a range of UCN-01 doses. The percent viable cells were determined with the MTT assay.

[6] = In vitro unbound fraction of UCN-01 in human plasma; type: in vitro ADME; set-up: dose or concentration left out as unconfirmed
Excerpt: as §1

[7] = Toxicity in mice: body weight and liver enzymes; type: in vivo; settings: mice bearing U87 GBM flank tumors
Excerpt: Weight declined with STS but not PBS or LSTS. Bottom panel is bar graph depicting liver enzymes ALT/AST before and after treatment. For free STS the post treatment levels were flagged as abnormal (stars). ALT/AST enzyme levels were normal with empty liposomes (control) and LSTS. Reference levels shown by dashed lines.

U87 cells = assay: FACS analysis for DNA content; type: cell-based; settings: treated cells
U87 flank tumors = assay: U87 flank tumor growth in mice; type: in vivo, nu/nu mice
phosphorylation of Akt = assay: Western blot for Akt, P-Akt, cleaved PARP; type: cell-based; settings: U87 cells
Excerpt: FIG. 5A: Western blot analysis for Akt, P-Akt, cleaved PARP. […] Representative blot from two independent experiments is shown.

## O=NN(CCCl)C(=O)NCCCl [BCNU]
U87 GBM
  IC50: 60000 nM

## COc1cccc2c1C(=O)c1c(O)c3c(c(O)c1C2=O)C[C@@](O)(C(=O)CO)C[C@@H]3O[C@H]1C[C@H](N)[C@H](O)[C@H](C)O1 [Doxorubicin]
U87 GBM; Homo sapiens, U-87 MG
  IC50: 1000 nM

## Cn1nnc2c(C(N)=O)ncn2c1=O [Temozolomide]
U87 GBM; Homo sapiens, U-87 MG
  IC50: 50000 nM

## CN[C@@H]1C[C@H]2O[C@@](C)([C@@H]1OC)n1c3ccccc3c3c4c(c5c6ccccc6n2c5c31)C(=O)N[C@H]4O [UCN-01, 7-hydroxystaurosporine]
[1]
  Unbound fraction %: 1.75%
[2]
  Unbound fraction %: 1.14%
U87 glioblastoma cells
  potentiation of temozolomide (TMZ): potentiated temozolomide (TMZ)
[3]
  sensitization to radiation: able to sensitize
[4]
  Unbound fraction %: 0.49%
[5]
  IC50 values: low nanomolar (nM) range
U87 GBM
  IC50: 50 nM
[6]
  Unbound fraction %: <0.02%

## O=c1[nH]cc(F)c(=O)[nH]1 [Compound 5-FU, 5-FU]
U87 GBM
  IC50: 2500 nM

## CN[C@@H]1C[C@H]2O[C@@](C)([C@@H]1OC)n1c3ccccc3c3c4c(c5c6ccccc6n2c5c31)C(=O)NC4 [STS, Staurosporine]
[7]
  body weight: reduction in body weight
U87 cells
  DNA content (FACS): G0 shift consistent with apoptosis
U87 flank tumors
  in vivo GBM proliferation (Ki-67): did not
Phosphorylation of Akt
  PARP cleavage: stimulated caspase 3 dependent PARP cleavage
  phospho-Akt: suppression of phospho-Akt
